Data on one molecule can be found in BindingDB's records for doi:10.1021/acs.jmedchem.7b00076 (University of Chinese Academy of Sciences, 2017).

Assay [1] in a line: Inhibition of CCDC6-fused RET (unknown origin) expressed in mouse Ba/F3 cells assessed as inhibition of cell proliferation after 72 hrs by cell counting kit-8 assay. (Formazan colour is commonly taken as a measure of viable cells.)
Assay [2] in a line: Inhibition of FGFR1OP2 fused FGFR1 in human KG1 cells assessed as inhibition of cell proliferation after 72 hrs by cell counting kit-8 assay.
Assay [3] in a line: Inhibition of FGFR1 in human NCI-H1581 cells assessed as inhibition of cell proliferation after 72 hrs by cell counting kit-8 assay.
The nature of assay [4]: Inhibition of TEL-fused KDR (unknown origin) expressed in mouse Ba/F3 cells assessed as inhibition of cell proliferation after 72 hrs by cell counting kit-8 assay.

The IC50 is the concentration that inhibits the measured activity by half.

Take `Cc1n[nH]c2ccc(-c3cc(N[C@@H](CO)c4ccccc4)cnc3-c3cc(F)ccc3O)cc12`: the IC50 came to 316 nM in assay [1], 15 nM in assay [2], 391 nM in assay [3] and 9.8 nM in assay [4].
